What was measured:
[1] = molecular target: Serine/threonine-protein kinase 10 (Homo sapiens) (UniProt O94804); experiment: Selectivity interaction (Kinase panel (KiNativ target engagement assay in Jurkat cells)) EUB0001635a STK10; type: cell-based; details: Selectivity number of off-targets 0.0, Selectivity number of targets 233.0, Source Knowledge https://www.sciencedirect.com/science/article/pii/S2451945619300674?via%3Dihub, at 1 µM
[2] = molecular target: Ribosomal protein S6 kinase alpha-3 (Homo sapiens, UniProt P51812); experiment: Selectivity interaction (ActivX KiNativ screen (kinase selectivity in THP-1 cell lysates)) EUB0000639a RPS6KA3; type: subcellular; details: lysate, at 5 µM
Sequence of Ribosomal protein S6 kinase alpha-3 (P51812 whole entry): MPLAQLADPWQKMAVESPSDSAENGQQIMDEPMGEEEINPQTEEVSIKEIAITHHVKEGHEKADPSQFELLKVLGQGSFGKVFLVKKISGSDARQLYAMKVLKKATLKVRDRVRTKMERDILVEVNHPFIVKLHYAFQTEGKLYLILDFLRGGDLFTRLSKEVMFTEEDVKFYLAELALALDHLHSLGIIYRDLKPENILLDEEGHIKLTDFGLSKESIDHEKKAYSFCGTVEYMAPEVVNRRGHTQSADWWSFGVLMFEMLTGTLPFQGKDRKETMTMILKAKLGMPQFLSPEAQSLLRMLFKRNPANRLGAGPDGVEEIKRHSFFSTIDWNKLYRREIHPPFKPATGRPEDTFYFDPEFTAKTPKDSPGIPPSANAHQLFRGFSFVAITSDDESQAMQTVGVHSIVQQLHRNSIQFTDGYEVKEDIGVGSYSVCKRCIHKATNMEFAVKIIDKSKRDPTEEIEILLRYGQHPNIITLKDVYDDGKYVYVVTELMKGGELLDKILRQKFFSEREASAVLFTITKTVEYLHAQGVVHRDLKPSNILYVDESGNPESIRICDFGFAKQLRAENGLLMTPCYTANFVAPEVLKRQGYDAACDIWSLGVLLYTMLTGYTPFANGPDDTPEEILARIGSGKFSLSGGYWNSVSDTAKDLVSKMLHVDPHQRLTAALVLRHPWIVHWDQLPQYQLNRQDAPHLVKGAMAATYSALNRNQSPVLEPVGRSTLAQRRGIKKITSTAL

[3] = molecular target: T1, Serine/threonine-protein kinase DCLK2 (Homo sapiens) (UniProt Q8N568); experiment: Selectivity interaction (ProQinase) EUB0000171b DCLK2
T1 sequence (whole entry): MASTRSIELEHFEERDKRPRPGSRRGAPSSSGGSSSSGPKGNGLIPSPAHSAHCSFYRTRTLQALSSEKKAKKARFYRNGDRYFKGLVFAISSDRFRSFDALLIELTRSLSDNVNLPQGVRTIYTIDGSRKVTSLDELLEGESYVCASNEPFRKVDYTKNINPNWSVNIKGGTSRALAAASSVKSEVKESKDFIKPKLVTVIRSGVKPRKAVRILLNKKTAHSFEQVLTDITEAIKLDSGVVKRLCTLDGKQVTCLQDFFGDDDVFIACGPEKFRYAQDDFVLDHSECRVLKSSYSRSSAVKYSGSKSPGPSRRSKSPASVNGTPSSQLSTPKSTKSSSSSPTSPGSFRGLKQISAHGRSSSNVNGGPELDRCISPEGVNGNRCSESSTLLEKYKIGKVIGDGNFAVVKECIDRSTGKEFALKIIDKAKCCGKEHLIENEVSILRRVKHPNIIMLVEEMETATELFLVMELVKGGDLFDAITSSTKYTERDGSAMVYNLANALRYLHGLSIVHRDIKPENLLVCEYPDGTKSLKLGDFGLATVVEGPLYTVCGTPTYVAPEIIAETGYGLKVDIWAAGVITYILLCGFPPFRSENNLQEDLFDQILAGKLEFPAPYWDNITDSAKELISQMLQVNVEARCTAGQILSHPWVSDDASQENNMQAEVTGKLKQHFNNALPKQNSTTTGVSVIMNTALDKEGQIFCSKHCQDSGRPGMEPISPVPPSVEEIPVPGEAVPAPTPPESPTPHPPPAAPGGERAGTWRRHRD

[4] = molecular target: T2, Muscarinic acetylcholine receptor M2 (Homo sapiens) (UniProt P08172); experiment: Selectivity interaction (Panel of kinases, GPCRs, ion channels and transporters (enzymatic assay)) EUB0000266bCl CHRM2
T2 sequence (whole entry): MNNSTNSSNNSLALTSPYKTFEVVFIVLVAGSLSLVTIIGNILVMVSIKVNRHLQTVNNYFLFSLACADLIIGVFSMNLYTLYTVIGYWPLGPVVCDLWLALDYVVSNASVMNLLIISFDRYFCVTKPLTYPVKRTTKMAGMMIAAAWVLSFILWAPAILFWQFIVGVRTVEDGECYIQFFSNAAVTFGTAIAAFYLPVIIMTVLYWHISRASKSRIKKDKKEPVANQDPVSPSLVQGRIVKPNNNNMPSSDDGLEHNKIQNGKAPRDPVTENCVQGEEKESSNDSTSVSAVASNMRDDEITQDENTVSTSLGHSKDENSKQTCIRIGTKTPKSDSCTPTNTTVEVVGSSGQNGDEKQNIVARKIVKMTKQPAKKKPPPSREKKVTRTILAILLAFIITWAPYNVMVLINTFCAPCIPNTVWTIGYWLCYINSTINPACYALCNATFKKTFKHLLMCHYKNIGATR

[5] = molecular target: Activin receptor type-2B (Homo sapiens) (UniProt Q13705); experiment: Selectivity interaction (KinomeScan (DiscoverX)) EUB0000092b ACVR2B; details: at 10 µM
Sequence of Activin receptor type-2B (Homo sapiens) (Q13705 whole entry): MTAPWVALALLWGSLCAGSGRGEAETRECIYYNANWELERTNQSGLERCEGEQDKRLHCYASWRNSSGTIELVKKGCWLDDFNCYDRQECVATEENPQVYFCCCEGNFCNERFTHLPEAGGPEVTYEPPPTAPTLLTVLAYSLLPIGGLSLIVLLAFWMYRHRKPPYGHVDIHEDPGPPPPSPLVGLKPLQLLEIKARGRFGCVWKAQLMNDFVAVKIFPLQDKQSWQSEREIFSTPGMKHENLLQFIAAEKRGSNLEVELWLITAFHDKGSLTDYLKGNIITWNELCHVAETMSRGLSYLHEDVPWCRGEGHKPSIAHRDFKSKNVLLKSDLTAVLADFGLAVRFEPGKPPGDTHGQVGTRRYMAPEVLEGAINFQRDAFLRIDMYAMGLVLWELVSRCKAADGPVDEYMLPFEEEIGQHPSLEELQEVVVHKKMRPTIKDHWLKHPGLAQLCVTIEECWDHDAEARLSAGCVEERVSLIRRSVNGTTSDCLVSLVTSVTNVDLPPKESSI

[6] = molecular target: T3, Serine/threonine-protein kinase Chk1 (Homo sapiens) (UniProt O14757); experiment: Selectivity interaction (Kinase screening (Upstate/Millipore)) EUB0000604a CHEK1
T3 sequence (whole entry): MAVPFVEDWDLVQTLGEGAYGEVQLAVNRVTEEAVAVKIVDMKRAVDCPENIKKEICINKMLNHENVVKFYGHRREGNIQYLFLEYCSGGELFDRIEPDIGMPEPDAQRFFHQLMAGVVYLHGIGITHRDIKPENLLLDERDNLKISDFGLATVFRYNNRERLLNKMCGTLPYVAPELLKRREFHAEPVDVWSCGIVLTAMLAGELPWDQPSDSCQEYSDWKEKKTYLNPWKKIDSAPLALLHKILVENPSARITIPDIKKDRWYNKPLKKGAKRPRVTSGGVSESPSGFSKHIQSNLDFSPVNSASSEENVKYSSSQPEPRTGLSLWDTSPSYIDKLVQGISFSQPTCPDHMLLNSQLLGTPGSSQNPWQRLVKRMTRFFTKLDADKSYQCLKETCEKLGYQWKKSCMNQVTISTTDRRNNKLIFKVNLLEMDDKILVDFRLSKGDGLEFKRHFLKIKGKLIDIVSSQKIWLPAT

Sequence of Serine/threonine-protein kinase 10 (Homo sapiens) (O94804 whole entry, looked up): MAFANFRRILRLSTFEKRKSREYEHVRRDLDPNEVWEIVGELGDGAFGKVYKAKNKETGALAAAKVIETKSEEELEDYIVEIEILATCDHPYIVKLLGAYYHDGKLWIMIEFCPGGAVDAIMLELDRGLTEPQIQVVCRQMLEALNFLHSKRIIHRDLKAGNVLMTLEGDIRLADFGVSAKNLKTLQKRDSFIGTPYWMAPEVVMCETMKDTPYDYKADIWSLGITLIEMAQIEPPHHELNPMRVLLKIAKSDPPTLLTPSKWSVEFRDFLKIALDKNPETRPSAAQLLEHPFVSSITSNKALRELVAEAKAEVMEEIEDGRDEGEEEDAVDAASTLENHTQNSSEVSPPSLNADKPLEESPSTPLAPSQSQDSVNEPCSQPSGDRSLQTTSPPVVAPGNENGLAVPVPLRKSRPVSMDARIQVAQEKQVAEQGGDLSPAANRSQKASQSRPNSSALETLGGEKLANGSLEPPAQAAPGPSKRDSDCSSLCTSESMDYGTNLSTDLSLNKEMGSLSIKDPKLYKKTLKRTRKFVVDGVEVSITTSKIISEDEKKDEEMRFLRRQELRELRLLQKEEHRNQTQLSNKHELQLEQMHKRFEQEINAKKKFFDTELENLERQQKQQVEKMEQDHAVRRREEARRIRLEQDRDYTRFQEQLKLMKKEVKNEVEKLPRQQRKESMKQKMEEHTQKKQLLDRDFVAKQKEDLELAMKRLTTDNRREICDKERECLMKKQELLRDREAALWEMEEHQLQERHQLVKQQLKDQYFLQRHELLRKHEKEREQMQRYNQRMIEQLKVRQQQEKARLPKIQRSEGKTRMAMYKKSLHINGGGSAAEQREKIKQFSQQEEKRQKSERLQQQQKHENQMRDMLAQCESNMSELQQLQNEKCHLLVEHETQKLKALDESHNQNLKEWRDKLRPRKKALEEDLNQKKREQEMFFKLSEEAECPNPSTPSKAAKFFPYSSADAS

Question: For C=CC(=O)Nc1ccc(C(=O)Nc2[nH]nc3c2CN(C(=O)N[C@H](CN(C)C)c2ccccc2)C3(C)C)cc1, which % of engagement [1] is on record?
Answer: -2.2%

Question: How did the % of inhibition [2] turn out when CC[C@@H]1[C@H](F)C(=O)N[C@@H]1COc1nccc2cc(C(N)=O)c(OC)cc12 [ZIMLOVISERTIB] was run?
Answer: 2.9%

Question: With C=CC(=O)Nc1cccc(C(=O)Nc2ccc(Nc3cc(-c4[nH]c(SC)nc4C)ccn3)cc2)c1 as the molecule, how does the % of control ([3]; at 1 µM) read?
Answer: 95%

Question: What about the % of control ([3]; at 5 µM) of the same molecule?
Answer: 94%

Question: With CCn1c(-c2nc3cc(C(=O)N4CCCC(N)C4)ccc3n2C)cc2ccccc21 (configuration not stated) as the molecule, how does the pXC50 [4] read?
Answer: < 4.8 M

Question: With CCC(=O)N1CCN(c2ccc(-n3c(=O)ccc4cnc5ccc(-c6cnc7ccccc7c6)cc5c43)cc2C(F)(F)F)CC1 as the molecule, how does the % of control [5] read?
Answer: 42%

Question: How did the % of inhibition [6] turn out when Cc1cnc(Nc2ccc(F)cc2Cl)nc1-c1c[nH]c(C(=O)N[C@H](CO)c2cccc(Cl)c2)c1 was run?
Answer: 40%
